Reference: patent US12667567B2, “Method of preventing blast-induced loss of cochlear and vestibular hair cells and auditory spiral ganglion neurons” (Therapeutic Vision, Inc., priority 2024, dated 2026)
“And” between values parts separate entries of the source, which are not always exact repeats. Identical values can stand only once. “Also recorded” adds a separate entry of the source.

How the values were obtained:
inner hair cells (IHC) = assay: Blast-induced inner hair cell loss, cochleogram; type: in vivo, rat
Procedure: (§1) Blast wave exposure. All rats were exposed to 6 blasts presented once every 5 minutes using equipment and procedures similar to those previously described. (See Manohar, S., et al., Blast-induced hearing loss suppresses hippocampal neurogenesis and disrupts long term spatial memory. Hear Res, 2020. 395: p. 108022; Stachowiak, M. K., et al., Neurogenesis and Oligodendrogenesis in a Mouse Model of Blast-Induced Traumatic Brain Injury. Neurology and Neurobiology, 2020: p. 1-14; and Newman, A. J., et al., Low-cost blast wave generator for studies of hearing loss and brain injury: blast wave effects in closed spaces. J Neurosci Methods, 2015. 242: p. 82-92.) Each rat was anesthetized with an intraperitoneal injection of ketamine (50 mg/kg) and xylazine (6 mg/kg) and stable anesthesia was maintained with supplementary half-doses of anesthetics as needed to maintain a stable anesthetic state. Each anesthetized rat was placed in a wire-mesh cage 5 cm with the snout of the rat facing the front of the blast tube opening. The average blast peak pressure level was 186 dB peak SPL (±0.8 dB, SEM, ~39.9 kPa). The intensity was selected based on our prior study in which we found no evidence of tympanic membrane or ossicular damage in rats exposed at 188 dB pSPL (Newman, A. J. et al.), consistent with an earlier report. (Roberto, M., R. P. Hamernik, and G. A. Turrentine, Damage of the auditory system associated with acute blast trauma. Ann Otol Rhinol Laryngol Suppl, 1989. 140: p. 23-34)
(§2) Experimental groups. The rats were divided into four groups (n=6/group): (1) Blast alone (B), (2) Blast plus earplugs (BEP), (3) Blast plus HK-2 (BHK-2) and (4) Blast plus earplugs plus HK-2 (BEPHK-2). All rats had free access to water and standard lab chow except for the BHK-2 and BEPHK-2 groups that also received HK-2 as noted below.
(§3) HK-2 synthesis and administration. HK-2 was synthesized and evaluated for purity (>99%) as described previously. (Kawada, H. and P. F. Kador, Orally Bioavailable Metal Chelators and Radical Scavengers: Multifunctional Antioxidants for the Coadjutant Treatment of Neurodegenerative Diseases. J Med Chem, 2015. 58(22): p. 8796-805; U.S. Pat. No. 8,877,766 B2) Rats in the BHK-2 group and BEPHK-2 group were fed the same standard laboratory rat chow as the other two groups, however, the chow had been treated with HK-2 as described previously. (Chen, G. D., et al.; Manohar, S., et al., Combined antioxidants and anti-inflammatory therapies fail to attenuate the early and late phases of cyclodextrin-induced cochlear damage and hearing loss. Hear Res, 2022. 414: p. 108409.) HK-2 treated food was administered to rats starting 7-days prior to the blast wave exposure and continuing for 30-days following exposure. Based on the rat's daily food consumption, measured every 2 days together with body weight, the average oral consumption of HK-2 was ~50 mg/kg/day. (Id.)
(§4) Tissue preparation. Approximately 60-days after the blast wave exposure, the rats from all four groups were deeply anesthetized with ketamine (50 mg/kg, i.p.) and xylazine (6 mg/kg, i.p.) and decapitated. The temporal bones were quickly removed. Under a dissection microscope, openings were made in the cochlear apex, round window, and the oval window. […]

outer hair cells (OHC) = assay: Blast-induced outer hair cell loss, cochleogram; type: in vivo, rat
Procedure: as §1, §2, §3, §4

[1] = system: vestibular hair cells in the crista of the ampulla; assay: Vestibular hair cell density in crista ampullae of semicircular canals after blast; type: in vivo, rat
Procedure: as §1, with “The intensity was selected based on our prior study in which we found no evidence of tympanic membrane or ossicular damage in rats exposed at 188 dB pSPL (Newman, A. J. et al.), consistent with an earlier report. (Roberto, M., R. P. Hamernik, and G. A. Turrentine, Damage of the auditory system associated with acute blast trauma. Ann Otol Rhinol Laryngol Suppl, 1989. 140: p. 23-34)” left out
HK-2 synthesis and administration. HK-2 was synthesized and evaluated for purity (>99%) as described previously. […] Based on the rat's daily food consumption, measured every 2 days together with body weight, the average oral consumption of HK-2 was ~50 mg/kg/day. […]

[2] = system: auditory nerve fibers (ANF); assay: Blast-induced loss of auditory nerve fibers in habenula perforata; type: in vivo, rat; conditions: for mean number of ANF/habenula perforata: middle of basal turn, ~25 kHz
Procedure: as §1, §2
(§5) HK-2 synthesis and administration. HK-2 was synthesized and evaluated for purity (>99%) as described previously. (Kawada, H. and P. F. Kador, Orally Bioavailable Metal Chelators and Radical Scavengers: Multifunctional Antioxidants for the Coadjutant Treatment of Neurodegenerative Diseases. J Med Chem, 2015. 58(22): p. 8796-805; U.S. Pat. No. 8,877,766 B2) Rats in the BHK-2 group and BEPHK-2 group were fed the same standard laboratory rat chow as the other two groups, however, the chow had been treated with HK-2 as described previously. […] Based on the rat's daily food consumption, measured every 2 days together with body weight, the average oral consumption of HK-2 was ~50 mg/kg/day. […]

[3] = system: noise-induced hearing loss and outer hair cell loss; conditions: 95 dB SPL octave band noise, 8 h/d for 21 days; HK-2 before, during and after the exposure; cited from earlier work
[4] = system: vestibular hair cells in the saccule; assay: Vestibular hair cell density in macula of the saccule after blast; type: in vivo, rat
Procedure: as §1, §2, §3, §4

[5] = system: vestibular hair cells in the utricle; assay: Vestibular hair cell density in macula of the utricle after blast; type: in vivo, rat
Procedure: as §1, §2, §5

[6] = system: spiral ganglion neurons (SGN); assay: Blast-induced loss of spiral ganglion neurons in Rosenthal's canal; type: in vivo, rat; conditions: for mean number of SGN per section: middle of basal turn, ~25 kHz
Procedure: as §1, §2, §5

[7] = BHK-2 group, 6 blasts 186 dB peak SPL, HK-2 oral 50 mg/kg/d from 7 d before to 30 d after blast, 60 d post-exposure, 50 mg/kg/day
[8] = BEPHK-2 group (earplugs plus HK-2)
[9] = BHK-2 group, no blast-induced loss in this region
[10] = HK-2 oral 50 mg/kg/d, 60 d post-exposure, 50 mg/kg/day

SMILES: O=C1CCC(=O)N1c1ncc(O)cn1 [HK-2, 1-(5-hydroxypyrimidin-2-yl) pyrrolidine-2,5-dione]
- IHC loss (inner hair cells (IHC); BEPHK-2 group (earplugs plus HK-2; range stated jointly with BEP group), base of the cochlea): 14-19%
- reduction of total IHC loss compared to B group (inner hair cells (IHC); [7]): 57% and ~ 57.3% and ~ 57%
- mean IHC loss (inner hair cells (IHC); BHK-2 group, middle of the cochlea): ~ 20
- mean IHC loss (inner hair cells (IHC); BHK-2 group, near the apex): 0%
- mean IHC loss (inner hair cells (IHC); BHK-2 group, near the base of the cochlea): ~ 67%
- OHC loss less than in BEP group (outer hair cells (OHC); BEPHK-2 group (earplugs plus HK-2), extreme base): about 10%
- reduction of total OHC loss compared to B group (outer hair cells (OHC); [7]): 67% and ~ 67%
- mean OHC loss (outer hair cells (OHC); BHK-2 group, 10% location (distance from apex)): 10%
- mean OHC loss (outer hair cells (OHC); BHK-2 group, 70% location (distance from apex)): ~ 39%
- mean OHC loss (outer hair cells (OHC); BHK-2 group, high-frequency base of the cochlea): ~ 76%
- mean hair cell density, crista of the ampulla of the three semicircular canals [1, 8]: 122.8 /0.0108 mm^2
- mean hair cell density, crista of the ampulla of the three semicircular canals [1, 9]: 121.8 /0.0108 mm^2
- mean number of ANF/habenula perforata [2, 8]: 82.8 ANF/habenula perforata
- mean number of ANF/habenula perforata ([2]; BHK-2 group, B group ~9.2): 84.2 ANF/habenula perforata
- protection against blast-induced ANF loss (in words) [2, 10]: completely prevented; also recorded: complete protection
- increase of ANF versus blast alone ([2]; HK-2 treatment, 25 kHz region): ~ 8 fold
- hearing loss and hair cell loss after noise exposure (in words) [3]: significantly reduced in a dose-dependent manner
- mean hair cell density, marginal region of the saccule [4, 8]: 123.0 /0.0108 mm^2
- mean vestibular hair cell density, striola of the saccule [4, 8]: 112.0 hair cell/0.0108 mm^2
- mean vestibular hair cell density, striola of the saccule ([4]; BHK-2 group, B group 71.83): 102.7 hair cell/0.0108 mm^2
- mean hair cell density, marginal region of the saccule [4, 9]: 122.2 /0.0108 mm^2
- protection against blast-induced saccule (striola) hair cell loss (in words) [4, 10]: completely prevented; also recorded: restored hair cell densities to normal levels; also recorded: significant protection
- mean hair cell density, marginal region of the macula of the utricle [5, 8]: 122.8 /0.0108 mm^2
- mean hair cell density, striola region of the macula of the utricle [5, 8]: 111.3 /0.0108 mm^2
- mean hair cell density, marginal region of the macula of the utricle [5, 9]: 122.7 /0.0108 mm^2
- mean hair cell density, striola region of the macula of the utricle [5, 9]: 111.0 /0.0108 mm^2
- mean number of SGN per section [6, 8]: 41.8 SGN per section
- mean number of SGN per section ([6]; BHK-2 group, B group ~9): 42.3 SGN per section
- protection against blast-induced SGN loss (in words) [6, 10]: completely prevented; also recorded: significant protection
- increase of SGN versus blast alone ([6]; HK-2 treatment, 25 kHz region): ~ 3.7 fold
